Assay results reported in patent publication US20120225031A1, “SPHINGOSINE-1-PHOSPHATE RECEPTOR AGONISTS IN THE TREATMENT OF DEMYELINATING DISORDERS” (priority 2002, published 2012).

Assays:
[1] = system: SJL/J mouse model of chronic progressive EAE; test: SJL/J mouse model of chronic progressive EAE; type: in vivo
Procedure: A.1 In Vivo: SJL/J Mouse Model of Chronic Progressive EAE
The disease course in this animal model shares some common features with SP- and PR-MS. Immunization: On day 0 female SJL/J mice are immunized (subcutaneous flank injection) with 200 μl inoculum containing 500 μg bovine myelin basic protein (MBP) emulsified in complete Freund's adjuvant (CFA). On day 9 mice are boosted by a second MBP injection and an additional intravenous adjuvant injection consisting of 200 ng B. pertussis toxin. A final Pertussis injection is given on day 11. […] This is followed by a recovery phase starting around day 25, during which time mice remain symptom-free for about 20 days. Subsequently, by days 45-47, approximately 50% of the animals go into the progressive phase of the disease. Therefore, therapeutic treatment with test compounds starts on day 21 when the disease is fully established and continues until day 70, unless stated otherwise. Recombinant mouse interferon β (INFβ Calbiochem/Biosciences) is dissolved in saline and given by intraperitoneal injection 3× per week. Compound (a), e.g. Compound A or B, is diluted in water and given p.o. 5× per week by gavage. Mice in the vehicle control group are MBP-immunized and treated with water.
Each experimental group consists of 10 mice, which are examined daily for clinical EAE symptoms. Disease incidence and the day of EAE onset also are recorded. Clinical grades of EAE are assessed using a scale from 0 to 3. Any disease-related mortality which occurs after starting drug treatment is recorded with a maximum score of 3.

[2] = system: DA rat model of chronic-protracted EAE; test: Optic neuritis in the DA rat model of chronic-protracted EAE; type: in vivo; settings: for disease progression (clinical EAE): 0.3 mg/kg p.o. once a day for 2 weeks, therapeutic treatment from about day 12, compared to vehicle-treated controls; for development of EAE symptoms / disease-related weight loss: suboptimal dose <0.1 mg/kg p.o. combined with a mTOR inhibitor (<1 mg/kg p.o.), therapeutic dosing
Text: A.2 In Vivo: Optic Neuritis in the DA Rat Model of Chronic-Protracted EAE
Ocular pathologic manifestations such as optic neuritis (neuromyelitis optica) are frequent in multiple sclerosis and often precede or accompany plaque formation in the brain white matter. Ocular areas, especially the optic chiasma, also are important targets in demyelinating forms of EAE. In such EAE models, functional disability caused by demyelination of the optic nerve can be assessed by electrophysiological methods, such as visual evoked cortical potentials and electroretinogram, in conjunction with morphological analysis of the ocular tissue.
Immunization: On day 0, female DA rats are immunized by a single intradermal injection at the tail base with 100-200 μl inoculum containing a recombinant encephalitogenic peptide, e.g. myelin oligodendrocyte glycoprotein, or a homogenate of syngeneic central nervous system tissue emulsified in one part CFA (volume:volume). Neurologic symptoms develop by 10 days post-immunization, and clinical grades of EAE are assessed using a scale of 0 to 4. Therapeutic treatment with the test compound starts when the disease is fully established, usually on day 12, and continues for 2 weeks.

Lewis rat model of EAE = test: Lewis rat model of EAE, prophylactic treatment regimen; type: in vivo; settings: combination with a mTOR inhibiter at similar doses, EAE induced by intradermal guinea pig neuroantigen
[3] = Acute toxicity (LD50) in rats; settings: rat, in vivo, po
[4] = Acute toxicity (LD50) in monkeys; settings: monkey, in vivo, po
[5] = 0.6 mg/kg p.o. 5x per week in combination with INFβ (10 000 IU i.p. 3x per week), therapeutic treatment from day 21, days 45-75, compared to vehicle-treated controls

Row | Molecule | disease progression (clinical EAE) [1, 5] | disease progression (clinical EAE) [2] | development of EAE symptoms [2] | disease-related weight loss [2] | disease onset (Lewis rat model of EAE) | LD50 [3] | LD50 [4] | disease progression (clinical EAE) ([1]; INFβ alone, 10 000 IU 3x/week i.p., afterwards full EAE response indistinguishable from vehicle-treated controls by day 68 onwards)
1 | NC(CO)(CO)CCc1ccc(C(=O)CCCCc2ccccc2)cc1 [Compound B, 2-amino-2-{2-[4-(1-oxo-5-phenylpentyl)phenyl]ethyl}propane-1,3-diol] | prevents disease progression for one month | prevents disease progression for at least 2 months | curtail development of EAE symptoms | prevent disease-related weight loss | prevent disease onset | – | – | –
2 | CCCCCCCCc1ccc(CCC(N)(CO)CO)cc1.Cl [Compound A, 2-amino-2-[2-(4-octylphenyl)ethyl]propane-1,3-diol] | prevents disease progression for one month | prevents disease progression for at least 2 months | curtail development of EAE symptoms | prevent disease-related weight loss | prevent disease onset | > 10 mg/kg | > 10 mg/kg | –
3 | INFβ: Recombinant mouse interferon β (Calbiochem/Biosciences), dissolved in saline, given by intraperitoneal injection (protein, UniProt P01575 22-182, looked up) Interferon beta: INYKQLQLQERTNIRKCQELLEQLNGKINLTYRADFKIPMEMTEKMQKSYTAFAIQEMLQNVFLVFRNNFSSTGWNETIVVRLLDELHQQTVFLKTVLEEKQEERLTWEMSSTALHLKSYYWRVQRYLKLMKYNSYAWMVVRAEIFRNFLIIRRLTRNFQN | – | – | – | – | – | – | – | only marginally inhibits disease progression for about 1 week
